The structures appear in SMILES notation. Where a SMILES comes first, the peptide text is derived from it.

The target in one experiment is HLA-A02.01 (Homo sapiens, UniProt P04439, D140Y/D185E/D98H/E176V/E277Q/G131W/G231S/I119V/I121R/I166T/I218V/L300P/L318F/N151K/N90K/P208A/P217A/Q86G/Q94H/R138H/R169H/T345S). Nature of the experiment: Class I MHC peptide binding affinity (displacement of radiolabeled reference peptide).
Settings: not given
Here is the method:
In brief, MHCI complexes were prepared and bound to radiolabeled reference peptides. Peptides were incubated at varying concentrations with these complexes for 2 days, and the amount of remaining radiolabeled peptide bound to […] was measured using size exclusion gel-filtration.
The compound `CC[C@H](C)[C@H](NC(=O)[C@H](CC(C)C)NC(=O)[C@H](CCC(N)=O)NC(=O)[C@@H](NC(=O)[C@@H](NC(=O)[C@@H](N)CO)[C@@H](C)O)C(C)C)C(=O)N[C@@H](CCSC)C(=O)N[C@@H](CCC(N)=O)C(=O)N[C@@H](CC(C)C)C(=O)O` (H-STVQLIMQL-OH; N-terminus and C-terminus assumed) showed a Kd of 7260 nM.

The same experiment, now with this note: EGFR T790M peptides; HLA allele A02.01; read-out: Affinity.
Regarding `CC[C@H](C)[C@H](NC(=O)[C@H](CC(C)C)NC(=O)[C@@H](N)CCC(N)=O)C(=O)N[C@@H](CCSC)C(=O)N[C@@H](CCC(N)=O)C(=O)N[C@@H](CC(C)C)C(=O)N[C@@H](CCSC)C(=O)N1CCC[C@H]1C(=O)N[C@@H](Cc1ccccc1)C(=O)NCC(=O)O` (H-QLIMQLMPFG-OH; N-terminus and C-terminus assumed), the Kd amounted to 5210 nM.

The same experiment, now with this note: Observed Affinity (IC50; (nM)), allele A02.01.
The compound `CC[C@H](C)[C@H](N)C(=O)N[C@H](C(=O)N[C@H](C(=O)N[C@@H](CCC(=O)O)C(=O)N[C@@H](Cc1ccccc1)C(=O)N[C@@H](CCSC)C(=O)N[C@H](C(=O)N[C@@H](Cc1ccc(O)cc1)C(=O)NCC(=O)N[C@@H](CC(N)=O)C(=O)O)[C@@H](C)O)[C@@H](C)CC)[C@@H](C)CC` displayed an IC50 of 1550 nM.
The same measure, in the same setting: as for `CC(C)C[C@H](NC(=O)[C@H](CC(=O)O)NC(=O)[C@H](CO)NC(=O)[C@H](CCC(N)=O)NC(=O)[C@H](CCC(N)=O)NC(=O)[C@@H](N)CCC(N)=O)C(=O)N[C@@H](CCC(N)=O)C(=O)N1CCC[C@H]1C(=O)N1CCC[C@H]1C(=O)N[C@@H](C)C(=O)O` (H-QQQSDLQPPA-OH; N-terminus and C-terminus assumed), the figure is 646 nM; as for `CC[C@H](C)[C@H](N)C(=O)N[C@H](C(=O)N[C@@H](CCC(=O)O)C(=O)N[C@@H](Cc1ccccc1)C(=O)N[C@@H](CCSC)C(=O)N[C@H](C(=O)N[C@@H](Cc1ccc(O)cc1)C(=O)NCC(=O)N[C@@H](CC(N)=O)C(=O)N[C@@H](CC(C)C)C(=O)O)[C@@H](C)O)[C@@H](C)CC` (H-IIEFMTYGNL-OH; N-terminus and C-terminus assumed), 9700 nM.
The same measure, in the same setting: as for `CC[C@H](C)[C@H](NC(=O)[C@H](CC(C)C)NC(=O)[C@H](CCC(N)=O)NC(=O)[C@@H](NC(=O)[C@@H](NC(=O)[C@@H](N)CO)[C@@H](C)O)C(C)C)C(=O)N[C@@H](CCSC)C(=O)N[C@@H](CCC(N)=O)C(=O)N[C@@H](CC(C)C)C(=O)O` (H-STVQLIMQL-OH; N-terminus and C-terminus assumed), the figure is 8540 nM.

Still in this experiment, the particulars now being: allele A02.01; read-out: Observed Affinity (IC50; (nM)).
On to `CC[C@H](C)[C@H](N)C(=O)N[C@@H](CCSC)C(=O)N[C@@H](CO)C(=O)N[C@@H](CC(C)C)C(=O)N[C@@H](Cc1c[nH]c2ccccc12)C(=O)NCC(=O)N[C@@H](CC(C)C)C(=O)N[C@H](C(=O)N[C@@H](CO)C(=O)O)C(C)C` (H-IMSLWGLVS-OH), for which the IC50 stood at 7320 nM.
Same read-out and setting: as for `CC[C@H](C)[C@H](NC(=O)[C@H](C)N)C(=O)N[C@@H](CCC(N)=O)C(=O)N1CCC[C@H]1C(=O)N[C@H](C(=O)N[C@@H](CC(C)C)C(=O)N[C@@H](Cc1c[nH]c2ccccc12)C(=O)N[C@H](C(=O)N[C@H](C(=O)O)[C@@H](C)O)[C@@H](C)O)C(C)C` (H-AIQPVLWTT-OH; N-terminus and C-terminus assumed), the figure is 8.1 nM; as for `CSCC[C@H](NC(=O)[C@H](CCC(=O)O)NC(=O)[C@H](CC(C)C)NC(=O)[C@H](CC(C)C)NC(=O)[C@H](CC(C)C)NC(=O)[C@H](CC(=O)O)NC(=O)[C@H](CC(N)=O)NC(=O)[C@H](CC(C)C)NC(=O)[C@@H]1CCCN1)C(=O)N[C@@H](CC(C)C)C(=O)O` (H-PLNDLLLEML-OH; N-terminus and C-terminus assumed), 12000 nM.
Still for that read-out and setting: as for `CC[C@H](C)[C@H](N)C(=O)N[C@H](C(=O)N[C@@H](C)C(=O)N[C@@H](Cc1ccccc1)C(=O)N[C@@H](Cc1ccccc1)C(=O)N[C@@H](CC(C)C)C(=O)N[C@@H](CC(C)C)C(=O)N[C@@H](CC(=O)O)C(=O)N[C@H](C(=O)O)[C@@H](C)CC)[C@@H](C)O` (H-ITAFFLLDI-OH; N-terminus and C-terminus assumed), the figure is 78.7 nM; as for `CSCC[C@H](N)C(=O)N[C@@H](C)C(=O)N[C@@H](CC(C)C)C(=O)N[C@@H](CC(N)=O)C(=O)N[C@@H](CO)C(=O)N[C@@H](CCC(=O)O)C(=O)N[C@@H](C)C(=O)N[C@@H](CC(C)C)C(=O)N[C@@H](CO)C(=O)N[C@H](C(=O)O)C(C)C`, 129 nM; as for `CC[C@H](C)[C@H](NC(=O)[C@H](CC(C)C)NC(=O)[C@@H](N)CCC(N)=O)C(=O)N[C@@H](CCSC)C(=O)N[C@@H](CCC(N)=O)C(=O)N[C@@H](CC(C)C)C(=O)N[C@@H](CCSC)C(=O)N1CCC[C@H]1C(=O)N[C@@H](Cc1ccccc1)C(=O)NCC(=O)O` (H-QLIMQLMPFG-OH; N-terminus and C-terminus assumed), 5930 nM.
As for `CSCC[C@H](NC(=O)[C@H](Cc1c[nH]cn1)NC(=O)[C@@H](NC(=O)[C@H](CC(C)C)NC(=O)[C@@H](NC(=O)[C@@H]1CCCN1C(=O)[C@H](C)NC(=O)[C@H](CC(C)C)NC(=O)[C@H](C)N)[C@@H](C)O)[C@@H](C)O)C(=O)N[C@@H](CC(C)C)C(=O)O` (H-ALAPTLTHML-OH; N-terminus and C-terminus assumed), the half-maximal inhibitory concentration (IC50) amounted to 39 nM.
Same read-out and setting: as for `CC[C@H](C)[C@H](NC(=O)[C@@H]1CCCN1C(=O)[C@H](CCCNC(=N)N)NC(=O)[C@H](CCC(N)=O)NC(=O)[C@H](CC(N)=O)NC(=O)[C@H](CCSC)NC(=O)CNC(=O)CNC(=O)[C@H](CCSC)NC(=O)[C@@H](N)CS)C(=O)O`, the figure is 3670 nM; as for `CC[C@H](C)[C@H](N)C(=O)N[C@@H](CC(C)C)C(=O)N[C@@H](CC(C)C)C(=O)N1CCC[C@H]1C(=O)N[C@@H](CCC(=O)O)C(=O)N[C@@H](CC(=O)O)C(=O)N[C@H](C(=O)N1CCC[C@H]1C(=O)N1CCC[C@H]1C(=O)N[C@@H](CC(C)C)C(=O)O)[C@@H](C)O` (H-ILLPEDTPPL-OH; N-terminus and C-terminus assumed), 6.7 nM; as for `CC(C)C[C@H](NC(=O)[C@H](Cc1c[nH]cn1)NC(=O)[C@H](Cc1c[nH]c2ccccc12)NC(=O)[C@H](CC(C)C)NC(=O)[C@@H](N)CCCNC(=N)N)C(=O)N[C@@H](CC(C)C)C(=O)N[C@@H](CC(C)C)C(=O)N[C@@H](CCC(N)=O)C(=O)N[C@H](C(=O)O)C(C)C` (H-RLWHLLLQV-OH; N-terminus and C-terminus assumed), 1.3 nM.
The same measure, in the same setting: as for `CC(C)C[C@H](NC(=O)[C@H](CC(C)C)NC(=O)[C@H](CC(=O)O)NC(=O)[C@H](CC(N)=O)NC(=O)[C@H](CC(C)C)NC(=O)[C@@H]1CCCN1C(=O)[C@@H](NC(=O)[C@@H](NC(=O)[C@@H](N)CC(N)=O)C(C)C)C(C)C)C(=O)O` (H-NVVPLNDLL-OH; N-terminus and C-terminus assumed), the figure is 2900 nM; as for `CC(C)C[C@H](NC(=O)[C@H](C)N)C(=O)N[C@@H](CC(N)=O)C(=O)N[C@@H](CO)C(=O)N[C@@H](CCC(=O)O)C(=O)N[C@@H](C)C(=O)N[C@@H](CC(C)C)C(=O)N[C@@H](CO)C(=O)N[C@H](C(=O)O)C(C)C` (H-ALNSEALSV-OH), 14 nM.
Same read-out and setting: as for `CSCC[C@H](N)C(=O)N[C@@H](CO)C(=O)N[C@H](C(=O)N[C@@H](CS)C(=O)N[C@@H](Cc1ccccc1)C(=O)N[C@@H](Cc1ccccc1)C(=O)N[C@@H](Cc1ccccc1)C(=O)N[C@@H](Cc1ccccc1)C(=O)N[C@@H](CO)C(=O)N[C@H](C(=O)O)C(C)C)C(C)C` (H-MSVCFFFFSV-OH; N-terminus and C-terminus assumed), the figure is 1710 nM; as for `CC(C)[C@H](NC(=O)[C@H](Cc1c[nH]cn1)NC(=O)[C@@H](NC(=O)[C@H](CCC(=O)O)NC(=O)[C@H](Cc1ccccc1)NC(=O)[C@H](CO)NC(=O)[C@@H](N)CC(N)=O)C(C)C)C(=O)N[C@@H](CS)C(=O)N[C@@H](C)C(=O)O` (H-NSFEVHVCA-OH; N-terminus and C-terminus assumed), 503 nM.
`CC(C)C[C@H](NC(=O)[C@@H](N)C(C)C)C(=O)N[C@H](C(=O)N[C@H](C(=O)N[C@H](C(=O)N[C@@H](CO)C(=O)N[C@H](C(=O)N[C@@H](CC(=O)O)C(=O)N[C@H](C(=O)O)C(C)C)[C@@H](C)O)[C@@H](C)O)C(C)C)[C@@H](C)O` (H-VLTVTSTDV-OH): the IC50 came out at 295 nM.
Take `CC(C)C[C@H](NC(=O)[C@H](CC(C)C)NC(=O)[C@H](CC(C)C)NC(=O)[C@H](CC(=O)O)NC(=O)[C@H](CS)NC(=O)[C@H](CC(C)C)NC(=O)[C@@H]1CCCN1C(=O)[C@@H](NC(=O)[C@@H](NC(=O)[C@@H](N)CC(N)=O)C(C)C)C(C)C)C(=O)O` (H-NVVPLCDLLL-OH; N-terminus and C-terminus assumed): the IC50 amounted to 1370 nM.
On to `CC[C@H](C)[C@H](NC(=O)[C@H](CCC(N)=O)NC(=O)[C@H](Cc1c[nH]c2ccccc12)NC(=O)[C@H](Cc1ccccc1)NC(=O)CNC(=O)[C@H](CS)NC(=O)[C@H](CC(C)C)NC(=O)[C@H](C)NC(=O)[C@@H](N)Cc1ccccc1)C(=O)O` (H-FALCGFWQI-OH; N-terminus and C-terminus assumed), for which the IC50 stood at 0.4 nM.
As to `CC(C)C[C@H](NC(=O)[C@H](CC(C)C)NC(=O)[C@H](CC(C)C)NC(=O)[C@H](CC(=O)O)NC(=O)[C@H](CO)NC(=O)[C@H](CC(C)C)NC(=O)[C@@H]1CCCN1C(=O)[C@@H](NC(=O)[C@@H](NC(=O)[C@@H](N)CC(N)=O)C(C)C)C(C)C)C(=O)O` (H-NVVPLSDLLL-OH; N-terminus and C-terminus assumed), the concentration for half-maximal inhibition (IC50) was 741 nM.
Same read-out and setting: as for `CC(C)C[C@H](NC(=O)[C@@H](N)CC(C)C)C(=O)N[C@@H](CCC(N)=O)C(=O)N[C@@H](CCC(=O)O)C(=O)N[C@@H](Cc1ccccc1)C(=O)N[C@@H](CC(=O)O)C(=O)N[C@H](C(=O)N[C@@H](CCC(N)=O)C(=O)N[C@@H](CCC(=O)O)C(=O)N[C@@H](C)C(=O)O)C(C)C` (H-LLQEFDVQEA-OH), the figure is 45 nM; as for `CC(C)C[C@H](NC(=O)[C@H](CC(C)C)NC(=O)CNC(=O)[C@H](Cc1ccc(O)cc1)NC(=O)[C@H](CC(C)C)NC(=O)[C@@H]1CCCN1C(=O)[C@@H](NC(=O)[C@@H](NC(=O)[C@@H](N)CC(N)=O)C(C)C)C(C)C)C(=O)O` (H-NVVPLYGLL-OH; N-terminus and C-terminus assumed), 10500 nM; as for `CC(C)C[C@H](NC(=O)[C@H](CO)NC(=O)CNC(=O)[C@H](CC(C)C)NC(=O)[C@H](CO)NC(=O)[C@H](CCCNC(=N)N)NC(=O)[C@H](Cc1c[nH]c2ccccc12)NC(=O)[C@H](CCC(N)=O)NC(=O)[C@@H](N)C(C)C)C(=O)O` (H-VQWRSLGSL-OH; N-terminus and C-terminus assumed), 4730 nM.

Values taken from patent publication US20220282217A1, “COMPOSITIONS AND METHODS FOR PREPARING T CELL COMPOSITIONS AND USES THEREOF” (priority 2019, published 2022).
